These results are taken from PMC8049054, “Systematic Assessment of Fragment Identification for Multitarget Drug Design” (Chemmedchem, 2021).

Structures are written as SMILES.

One assay deals with T1, soluble epoxide hydrolase (sEH) (Homo sapiens, UniProt P34913).
T1 construct: made in house; host or cells: E. coli BL21 (DE3)
T1 sequence (P34913 1-555): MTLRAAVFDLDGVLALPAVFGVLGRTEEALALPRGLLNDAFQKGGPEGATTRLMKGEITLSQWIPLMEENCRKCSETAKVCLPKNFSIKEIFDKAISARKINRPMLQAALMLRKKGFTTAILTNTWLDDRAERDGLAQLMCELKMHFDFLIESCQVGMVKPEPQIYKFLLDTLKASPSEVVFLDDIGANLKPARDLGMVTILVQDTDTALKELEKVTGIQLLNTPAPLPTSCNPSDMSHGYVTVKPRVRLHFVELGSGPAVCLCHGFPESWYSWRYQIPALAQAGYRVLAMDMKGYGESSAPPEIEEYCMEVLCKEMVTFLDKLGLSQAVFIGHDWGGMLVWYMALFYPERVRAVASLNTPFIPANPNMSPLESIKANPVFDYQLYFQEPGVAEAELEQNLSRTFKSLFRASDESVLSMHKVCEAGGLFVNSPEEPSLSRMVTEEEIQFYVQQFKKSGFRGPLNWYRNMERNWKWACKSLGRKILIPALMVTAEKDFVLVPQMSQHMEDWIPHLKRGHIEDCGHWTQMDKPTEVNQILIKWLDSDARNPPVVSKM
As to the kind of experiment: sEH-H activity assay (fluorogenic substrate PHOME). The format is biochemical. The conditions noted are these: ligand efficiency calculated from IC50. As for the experimental part:
For hit validation, we employed secondary assays with orthogonal readouts to confirm fragment activities. Biochemical activity assays were chosen for the enzymes sEH, LTA4H, and 5‐LOX. […] RXRα and FXR modulation was assessed in cell‐based hybrid reporter gene assays. All ten compounds were tested at a single concentration of 500 μM in the sEH and LTA4H activity assays and with a concentration of 100 μM on 5‐LOX, RXRα, and FXR. Fragments showing an inhibition greater than 50 % (sEH‐H and LTA4H) or greater than 70 % (5‐LOX) as well as the hits determined in the DSF experiments were further characterized in full concentration‐response curves between 0.1 and 1000 μM. […] As alternative cell‐free assay we employed isothermal titration calorimetry (ITC) to determine binding affinity of the fragments towards the LBDs of both nuclear receptors. ITC was performed with a protein concentration of 50 μM and compound concentrations of 250 μM.
The 10 fragments showing dual activity in the DSF experiments were validated by functional assay screening with a fixed concentration of 500 µM in case of sEH-H and LTA4H, 100 µM in case of 5-LOX and 30 µM, 10 µM and 5 µM in case of FXR and […]
% (5-LOX) as well as the hits determined in the DSF experiments were further measured with concentrations between 1000 µM and 0.1 µM (sEH-H and LTA4H) and between 300 µM and 1 µM (5-LOX). The sEH and LTA4H activity assays were performed as triplicate and repeated 3 times. The 5-LOX activity assay was performed with one point per concentration and repeated 3 times Raw data was first analyzed in Microsoft Office Excel (2013), before IC50 curves were plotted and further analyzed using GraphPad Prism 7 and GraphPad Prism 8 for the shown graphs .
The eight approved drugs were measured in the orthogonal assay systems analogous to the fragments. The approved drugs were […]
For the sEH-H and LTA4H, they were measured as triplicate in concentrations between 1000 µM and 1 µM and each measurement was repeated three times. For the 5-LOX they were measured as single point measurement in three different experiments with concentrations between 300 µM and 1 µM. For […]
Raw data was processed according to the fragments.
The sEH-H activity assay was performed adapted from Hahn et al.5 and Lukin et al.6. In short 1 µl of compound dilution in DMSO or pure DMSO (for the positive and negative control) was placed in a black 96-well plate (Thermo Scientific™ Nunc™ F96 MicroWell™ Black Polystyrene Plate) and then 89 µl of protein-mix or buffer mix (without protein as negative control) were added and the mixture was incubated for 30 min at room temperature. 10 µl of 0.6 mM 3-phenyl-cyano(6-methoxy-2-naphthalenyl)methylester-2-oxiraneacetic acid (PHOME) were added to every well. The Plate was measured every minute for 45 min. Final concentration per well was 3 nM sEH-Fl, 0.001 % Triton X-100, 25 mM Bis-tris, 0.1 mg/ml BSA, pH = 7.0, 1.6% DMSO […]
Consider `Cc1cc(=O)n(-c2ccc(C)c(C)c2)[nH]1` [Compound 2], for which the “sEH LE” value is reported as 0.35 kcal/mol. Regarding `CCCCOc1cc(C(=O)OC)ccc1N` [Compound 3], the “sEH LE” value was <0.3 kcal/mol. The same measure, in the same setting: for `Cc1ccccc1C(=O)Nc1ccccc1` [Compound 6] the value was 0.31 kcal/mol; for `Clc1ccc2c(c1)Nc1ccccc1CC2` [Compound 8], 0.33 kcal/mol; for `Oc1ccc(-c2ccc(F)cc2F)cc1` [Compound 9], 0.36 kcal/mol.

With `Fc1ccc(-c2c[nH]c3ccccc23)cc1` [Compound 10], the “sEH LE” value is recorded as 0.33 kcal/mol.

The assay is the same for the next values; noted with them: mean±standard deviation of three independent experiments.
Turning to `Cc1cc(=O)n(-c2ccc(C)c(C)c2)[nH]1` [Compound 2], the IC50 came to 135 ± 9.1 µM. Same read-out and setting: the same measure for `CCCCOc1cc(C(=O)OC)ccc1N` [Compound 3]: > 300 µM. Still for that read-out and setting: for `Oc1ccc(Cc2ccccc2)cc1` [Compound 4] the value was 151 ± 5.8 µM; for `Cc1ccccc1C(=O)Nc1ccccc1` [Compound 6], 226 ± 18.5 µM; for `CCN(Cc1ccccc1)c1ccccc1` [Compound 7], 56.6 ± 5.4 µM. For `Clc1ccc2c(c1)Nc1ccccc1CC2` [Compound 8], the half-maximal inhibitory concentration (IC50) stood at 141 ± 34.1 µM. For the molecule `Oc1ccc(-c2ccc(F)cc2F)cc1` [Compound 9], the IC50 was found to be 108 ± 11 µM. Regarding `Fc1ccc(-c2c[nH]c3ccccc23)cc1` [Compound 10], the IC50 stood at 120 ± 22.4 µM.

The term IC50 denotes the midpoint of a concentration-inhibition curve.
